# Values joined by “and” are separate entries in the source; they are usually repeats but may differ in a detail not shown here. Identical values can stand only once. Toxic doses and inconclusive results are not listed.
# System: P388 leukemia ip, CD2F1 mice, survival T/C
# Test: NCI In Vivo Anticancer Drug Screen. Data for tumor model P388 Leukemia (intraperitoneal) in CD2F1 (CDF1) mice
# Settings: endpoint: median survival time, higher = longer survival
# Procedure, shortened: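 Mice carrying the transplanted tumor received test compound or vehicle. Survival was recorded in each group, and the value is the treated-group measurement divided by that of the vehicle-treated control group.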
# [1] = dose: 50.0 mg/kg/injection, schedule: Q01DX009 (ip), vehicle: saline with Tween-80
# [2] = dose: 100.0 mg/kg/injection, schedule: Q01DX009 (ip), vehicle: saline with Tween-80
# [3] = dose: 200.0 mg/kg/injection, schedule: Q01DX009 (ip), vehicle: saline with Tween-80
# [4] = dose: 60.0 mg/kg/injection, schedule: Q01DX005 (ip), vehicle: saline
# [5] = dose: 120.0 mg/kg/injection, schedule: Q01DX005 (ip), vehicle: saline
# [6] = dose: 60.0 mg/kg/injection, schedule: Q01DX005 (ip), vehicle: saline with Tween-80
# [7] = dose: 120.0 mg/kg/injection, schedule: Q01DX005 (ip), vehicle: saline with Tween-80
# [8] = dose: 100.0 mg/kg/injection, schedule: Q04DX003 (ip), vehicle: saline with Tween-80
# [9] = dose: 200.0 mg/kg/injection, schedule: Q04DX003 (ip), vehicle: saline with Tween-80
# [10] = dose: 50.0 mg/kg/injection, schedule: Q01DX005 (ip), vehicle: saline with Tween-80
# [11] = dose: 100.0 mg/kg/injection, schedule: Q01DX005 (ip), vehicle: saline with Tween-80
# [12] = dose: 240.0 mg/kg/injection, schedule: Q01DX005 (ip), vehicle: saline with Tween-80
# [13] = dose: 6.25 mg/kg/injection, schedule: Q01DX009 (ip), vehicle: saline with Tween-80
# [14] = dose: 12.5 mg/kg/injection, schedule: Q01DX009 (ip), vehicle: saline with Tween-80
# [15] = dose: 25.0 mg/kg/injection, schedule: Q01DX009 (ip), vehicle: saline with Tween-80
structure (smiles),measurement,setting,value
Cc1cc(NCCCCCCCNc2cc(C)nc3cc(N)ccc23)c2ccc(N)cc2n1,T/C,"dose: 1.56 mg/kg/injection, schedule: Q01DX009 (ip), vehicle: other",165 % of control
same,T/C,"dose: 3.13 mg/kg/injection, schedule: Q01DX009 (ip), vehicle: other",158 % of control
same,T/C,"dose: 6.25 mg/kg/injection, schedule: Q01DX009 (ip), vehicle: other",186 % of control and 196 % of control
same,T/C,"dose: 12.5 mg/kg/injection, schedule: Q01DX009 (ip), vehicle: other",157 % of control and 186 % of control
CCOC(=O)c1ccc(NC(=O)Nc2nc3c(Cl)cccc3s2)cc1,T/C,[1],104 % of control
same,T/C,[2],94 % of control
same,T/C,[3],87 % of control
Nc1ccc(Nc2c3ccccc3nc3ccccc23)cc1,T/C,"dose: 6.25 mg/kg/injection, schedule: Q04DX003 (ip), vehicle: saline",104 % of control
same,T/C,"dose: 12.5 mg/kg/injection, schedule: Q04DX003 (ip), vehicle: saline",100 % of control
same,T/C,"dose: 25.0 mg/kg/injection, schedule: Q04DX003 (ip), vehicle: saline",121 % of control
CCOC(=O)N1N=C(c2ccccc2)OC2(N3CCOCC3)CCC(C(C)(C)C)CC12 (configuration not stated),T/C,"dose: 50.0 mg/kg/injection, schedule: Q01DX005 (ip), vehicle: Klucel (hydroxypropylcellulose) (HPC)",100 % of control
same,T/C,"dose: 100.0 mg/kg/injection, schedule: Q01DX005 (ip), vehicle: Klucel (hydroxypropylcellulose) (HPC)",101 % of control
same,T/C,"dose: 200.0 mg/kg/injection, schedule: Q01DX005 (ip), vehicle: Klucel (hydroxypropylcellulose) (HPC)",97 % of control
N[C@H](C(=O)O)[C@H]1ON=C(Cl)[C@@H]1O,T/C,"dose: 0.13 mg/kg/injection, schedule: Q01DX009 (ip), vehicle: saline",104 % of control and 98 % of control
same,T/C,"dose: 0.25 mg/kg/injection, schedule: Q01DX009 (ip), vehicle: saline",106 % of control and 113 % of control
same,T/C,"dose: 0.5 mg/kg/injection, schedule: Q01DX009 (ip), vehicle: saline",112 % of control
same,T/C,"dose: 1.0 mg/kg/injection, schedule: Q01DX009 (ip), vehicle: saline",117 % of control and 121 % of control
same,T/C,"dose: 2.0 mg/kg/injection, schedule: Q01DX009 (ip), vehicle: saline",124 % of control
same,T/C,"dose: 4.0 mg/kg/injection, schedule: Q01DX009 (ip), vehicle: saline",153 % of control
same,T/C,"dose: 8.0 mg/kg/injection, schedule: Q01DX009 (ip), vehicle: saline",153 % of control
same,T/C,"dose: 16.0 mg/kg/injection, schedule: Q01DX009 (ip), vehicle: saline",198 % of control
COC1=C(OC)C(=O)C(N(C)C)=C(CO)C1=O,T/C,"dose: 30.0 mg/kg/injection, schedule: Q01DX005 (ip), vehicle: saline",105 % of control
same,T/C,[4],103 % of control and 108 % of control
same,T/C,[5],117 % of control and 120 % of control
Cc1cc(OC(=O)c2ccccc2OS(N)(=O)=O)ccc1Cl,T/C,"dose: 60.0 mg/kg/injection, schedule: Q01DX005 (ip), vehicle: Klucel (hydroxypropylcellulose) (HPC)",98 % of control
same,T/C,"dose: 120.0 mg/kg/injection, schedule: Q01DX005 (ip), vehicle: Klucel (hydroxypropylcellulose) (HPC)",97 % of control
same,T/C,"dose: 240.0 mg/kg/injection, schedule: Q01DX005 (ip), vehicle: Klucel (hydroxypropylcellulose) (HPC)",94 % of control
COC(=O)c1nc(N)nc(C(=O)OC)c1C(=O)C(C)(C)C,T/C,[6],96 % of control
same,T/C,[7],96 % of control
COC(=O)c1cc(=O)n(-c2ccc(OC)cc2)c(SC)n1,T/C,[8],100 % of control
same,T/C,[9],91 % of control
Cc1cccc(NCc2ccccn2)n1,T/C,[10],103 % of control
same,T/C,[11],103 % of control
Cc1cc(C)n(C2=NS(=O)(=O)c3ccccc3N2C)n1,T/C,[6],93 % of control
same,T/C,[7],101 % of control
same,T/C,[12],99 % of control
COc1c(C)cc(C)c(CO)c1-c1c(CO)c(C)cc(C)c1OC,T/C,"dose: 100.0 mg/kg/injection, schedule: Q01DX001 (ip), vehicle: Klucel (hydroxypropylcellulose) (HPC)",99 % of control
same,T/C,"dose: 200.0 mg/kg/injection, schedule: Q01DX001 (ip), vehicle: Klucel (hydroxypropylcellulose) (HPC)",101 % of control
same,T/C,"dose: 400.0 mg/kg/injection, schedule: Q01DX001 (ip), vehicle: Klucel (hydroxypropylcellulose) (HPC)",99 % of control
O=C(O)CC(=O)C(C(=O)O)C(CCc1ccccc1)C(C(=O)O)C(=O)CC(=O)O (configuration not stated),T/C,"dose: 3.12 mg/kg/injection, schedule: Q01DX009 (ip), vehicle: saline with Tween-80",92 % of control
same,T/C,[13],101 % of control
same,T/C,[14],100 % of control
same,T/C,[1],89 % of control and 92 % of control
same,T/C,[3],90 % of control
C=C(C)C(=O)N(C)C(C)C(=O)OC1CC(=O)N(C)c2cc(cc(OC)c2Cl)C(OC)C(C)=C/C=C/C(OC)C2(O)CC(OC(=O)N2)C(C)C2OC12C (configuration not stated),T/C,"dose: 8.0 micrograms/kg/injection, schedule: Q01DX009 (ip), vehicle: saline",172 % of control
O=C(CCCl)Nc1ccccc1C(=O)CCc1cn(C(=O)CCCl)c2ccccc12,T/C,[6],107 % of control
same,T/C,[7],102 % of control
same,T/C,[12],96 % of control
CC(=O)NS(=O)(=O)c1ccc(N=NC2C(=O)N(C(=O)c3ccncc3)N=C2C)cc1 (configuration not stated),T/C,[1],95 % of control
same,T/C,[2],97 % of control
same,T/C,[3],100 % of control
C=C(C)C1NC(=O)C(C(O)c2cc(O)c(O)c(Cl)c2)N(C)C(=O)/C(=C/C(=O)O)NC(=O)/C(=C(\C)CC)NC(=O)C2C=CCN2C(=O)C(C(C)(O)CC)NC1=O (configuration not stated),T/C,"dose: 0.65 mg/kg/injection, schedule: Q01DX005 (ip), vehicle: Klucel (hydroxypropylcellulose) (HPC)",88 % of control
same,T/C,"dose: 1.25 mg/kg/injection, schedule: Q01DX005 (ip), vehicle: Klucel (hydroxypropylcellulose) (HPC)",95 % of control
same,T/C,"dose: 2.5 mg/kg/injection, schedule: Q01DX005 (ip), vehicle: Klucel (hydroxypropylcellulose) (HPC)",91 % of control
CN=C(NC1CCCCC1)c1ccc(NC(=O)c2ccc(C(=O)Nc3ccc(C(=NC)NC4CCCCC4)cc3)cc2)cc1,T/C,"dose: 1.5 mg/kg/injection, schedule: Q01DX005 (ip), vehicle: saline with Tween-80",100 % of control
same,T/C,"dose: 3.0 mg/kg/injection, schedule: Q01DX005 (ip), vehicle: saline with Tween-80",100 % of control
same,T/C,"dose: 6.0 mg/kg/injection, schedule: Q01DX005 (ip), vehicle: saline with Tween-80",112 % of control
same,T/C,"dose: 6.25 mg/kg/injection, schedule: Q01DX005 (ip), vehicle: saline with Tween-80",105 % of control
NC(=O)C(CO)NC(=O)c1cccnc1 (configuration not stated),T/C,[4],100 % of control
same,T/C,[5],100 % of control
same,T/C,"dose: 240.0 mg/kg/injection, schedule: Q01DX005 (ip), vehicle: saline",99 % of control
OC(COc1c2ccccc2nc2ccccc12)CN1CCOCC1 (configuration not stated),T/C,[10],99 % of control
same,T/C,[11],93 % of control
COc1ccc(/C=N/c2oc(-c3ccccc3)c(-c3ccccc3)c2-c2ccc(OC)cc2)cc1,T/C,"dose: 12.5 mg/kg/injection, schedule: Q01DX005 (ip), vehicle: saline with Tween-80",92 % of control
same,T/C,"dose: 25.0 mg/kg/injection, schedule: Q01DX005 (ip), vehicle: saline with Tween-80",87 % of control
CC(=O)CC(=O)Nc1cc(Cl)c(NC(=O)CC(C)=O)cc1Cl,T/C,[8],100 % of control
same,T/C,[9],104 % of control
same,T/C,"dose: 400.0 mg/kg/injection, schedule: Q04DX003 (ip), vehicle: saline with Tween-80",95 % of control
C=CCN1CSC(=S)N(CC=C)C1,T/C,[15],98 % of control
same,T/C,[1],119 % of control and 94 % of control
CCCCNC(c1ccc(N(CC)CC)cc1)C(Br)(Br)Br (configuration not stated),T/C,"dose: 50.0 mg/kg/injection, schedule: Q01DX005 (ip), vehicle: saline",114 % of control
same,T/C,"dose: 100.0 mg/kg/injection, schedule: Q01DX005 (ip), vehicle: saline",101 % of control
same,T/C,"dose: 200.0 mg/kg/injection, schedule: Q01DX005 (ip), vehicle: saline",107 % of control
O=C(/C=C/c1ccccc1)n1nnc2cc(Cl)c(Cl)cc21,T/C,[14],92 % of control
same,T/C,[15],115 % of control
same,T/C,[1],92 % of control
same,T/C,[2],99 % of control
same,T/C,[3],96 % of control
CSc1nc(N)n2nc(C)cc2n1,T/C,[6],100 % of control
same,T/C,[7],100 % of control
same,T/C,[12],95 % of control
CCOC(=O)C(Br)c1cccc(OC)c1 (configuration not stated),T/C,[2],91 % of control
same,T/C,[3],95 % of control
same,T/C,"dose: 400.0 mg/kg/injection, schedule: Q01DX009 (ip), vehicle: saline with Tween-80",95 % of control
CCOC(=O)c1[nH]c(=S)n(-c2ccccc2)c1C(=O)OCC,T/C,[13],101 % of control
same,T/C,[14],110 % of control
same,T/C,[15],111 % of control
same,T/C,[1],101 % of control
O=C(CCN1CCCCC1)c1ccccc1,T/C,"dose: 5.0 mg/kg/injection, schedule: Q01DX009 (ip), vehicle: saline",100 % of control
same,T/C,"dose: 10.0 mg/kg/injection, schedule: Q01DX009 (ip), vehicle: saline",113 % of control
same,T/C,"dose: 20.0 mg/kg/injection, schedule: Q01DX009 (ip), vehicle: saline",109 % of control
same,T/C,[1],97 % of control

# Source: PubChem BioAssay AID330 (DTP/NCI, 2004)
